Results: patent US12435044B2, “Pyridazinone herbicides and pyridazinone intermediates used to prepare a herbicide” (FMC Corporation, priority 2018, dated 2025)

How the values were obtained:
Assay type in all cases: in vivo
[1] = system: chickweed (common chickweed, Stellaria media); assay: Test C postemergence greenhouse test; settings: scale 0 to 100
From the text: (§1) Seeds of plant species selected from blackgrass (Alopecurus myosuroides), ryegrass, Italian (Lolium multiflorum), wheat, winter (winter wheat, Triticum aestivum), galium (catchweed bedstraw, Galium aparine), corn (Zea mays), crabgrass, large (Digitaria sanguinalis), foxtail, giant (Setaria faberii), johnsongrass (Sorghum halepense), lambsquarters (Chenopodium album), morningglory (Ipomoea coccinea), nutsedge, yellow (Cyperus esculentus), pigweed (Amaranthus retroflexus), ragweed (common ragweed, Ambrosia elatior), soybean (Glycine max), barnyardgrass (Echinochloa crus-galli), oilseed rape (Brassica napus), waterhemp (common waterhemp, Amaranthus rudis), pigweed, palmer (Amaranthus palmeri), kochia (Kochia scoparia), oat, wild (Avena fatua), surinam grass (Brachiaria decumbens), windgrass (Apera spica-venti), poinsettia, wild (Euphorbia heterophylla) and velvetleaf (Abutilon theophrasti) were planted into a silt loam soil and treated preemergence with test chemicals formulated in a non-phytotoxic solvent mixture which included a surfactant.
(§2) At the same time, plants selected from these crop and weed species and also chickweed (common chickweed, Stellaria media), buckwheat, wild (Polygonum convolvulus), mustard, wild (Sinapis arvensis), field poppy (Papaver rhoeas), field violet (Viola arvensis), nightshade (eastern black nightshade, Solanum ptycanthum), speedwell (bird's-eye speedwell, Veronica persica), horseweed (Conyza canadensis), cutleaf geranium (Geranium dissectum), and Canada thistle (Cirsium arvense) were planted in pots containing Redi-Earth® planting medium (Scotts Company, 14111 Scottslawn Road, Marysville, Ohio 43041) comprising spaghnum peat moss, vermiculite, wetting agent and starter nutrients and treated with postemergence applications of test chemicals formulated in the same manner. Plants ranged in height from 2 to 18 cm (1- to 4-leaf stage) for postemergence treatments. Treated plants and controls were maintained in a greenhouse for 13 to 21 d, after which time all species were compared to controls and visually evaluated. Plant response ratings, summarized in Table C-1 (postemergence) and C-2 (preemergence), are based on a scale of 0 to 100 where 0 is no effect and 100 is complete control. A dash (-) response means no test result.

[2] = system: field poppy (Papaver rhoeas); assay: Test C postemergence greenhouse test; settings: scale 0 to 100
From the text: as §1, §2

[3] = system: wheat (Triticum aestivum); assay: Test A postemergence greenhouse test
From the text: (§3) Seeds of plant species selected from barnyardgrass (Echinochloa crus-galli), kochia (Kochia scoparia), ragweed (common ragweed, Ambrosia elatior), ryegrass, Italian (Lolium multiflorum), foxtail, giant (Setaria faberii), foxtail, green (Setaria viridis) and pigweed (Amaranthus retroflexus) were planted into a blend of loam soil and sand and treated preemergence with a directed soil spray using test chemicals formulated in a non-phytotoxic solvent mixture which included a surfactant.
(§4) At the same time, plants selected from these weed species and also wheat (Triticum aestivum), corn (Zea mays), blackgrass (Alopecurus myosuroides) and galium (catchweed bedstraw, Galium aparine) were planted in pots containing the same blend of loam soil and sand and treated with postemergence applications of test chemicals formulated in the same manner. Plants ranged in height from 2 to 10 cm and were in the one- to two-leaf stage for the postemergence treatment. Treated plants and untreated controls were maintained in a greenhouse for approximately 10 d, after which time all treated plants were compared to untreated controls and visually evaluated for injury. Plant response ratings, summarized in Table A, are based on a 0 to 100 scale where 0 is no effect and 100 is complete control. A dash (-) response means no test result.

[4] = system: galium (catchweed bedstraw, Galium aparine); assay: Test A postemergence greenhouse test
From the text: as §3, §4

[5] = system: blackgrass (Alopecurus myosuroides); assay: Test A postemergence greenhouse test
From the text: as §3, §4

[6] = system: corn (Zea mays); assay: Test A postemergence greenhouse test
From the text: as §3, §4

[7] = system: oat, wild (Avena fatua); assay: Test C pre-/postemergence greenhouse test; settings: scale 0 to 100
Summary of the method: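 Seeds sown in silt loam soil and sprayed preemergence with test chemicals in a non-phytotoxic solvent mixture containing surfactant. Postemergence plants, 2 to 18 cm (1- to 4-leaf stage), grown in peat/vermiculite planting medium and treated with the same formulation. Visual injury rated 0–100 versus untreated controls after 13 to 21 d in the greenhouse.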

[8] = system: pigweed (Amaranthus retroflexus); assay: Test A pre-/postemergence greenhouse test
From the text: as §3, §4

[9] = system: ryegrass, Italian (Lolium multiflorum); assay: Test A pre-/postemergence greenhouse test
From the text: as §3, §4

[10] = system: ragweed (common ragweed, Ambrosia elatior); assay: Test A pre-/postemergence greenhouse test
From the text: as §3, §4

[11] = system: kochia (Kochia scoparia); assay: Test A pre-/postemergence greenhouse test
From the text: as §3, §4

[12] = system: barnyardgrass (Echinochloa crus-galli); assay: Test A pre-/postemergence greenhouse test
From the text: as §3, §4

## Cc1cc(Cl)c2ccccc2c1-c1c(O)c(Cl)nn(C)c1=O [Cpd. No. 65]
[1]; 16 g ai/ha
  Plant response rating, Chickweed: 98
[1]; 31 g ai/ha
  Plant response rating, Chickweed: 95
[1]; 62 g ai/ha
  Plant response rating, Chickweed: 95
[1]; 125 g ai/ha
  Plant response rating, Chickweed: 98
[2]; 16 g ai/ha
  Plant response rating, Field Poppy: 80
[2]; 31 g ai/ha
  Plant response rating, Field Poppy: 98
[2]; 62 g ai/ha
  Plant response rating, Field Poppy: 98
[2]; 125 g ai/ha
  Plant response rating, Field Poppy: 100
[3]; 31 g ai/ha
  Plant response rating (0 to 100 scale): 80
[3]; 125 g ai/ha
  Plant response rating (0 to 100 scale): 90
[4]; 31 g ai/ha
  Plant response rating (0 to 100 scale): 100
[4]; 125 g ai/ha
  Plant response rating (0 to 100 scale): 100
[5]; 31 g ai/ha
  Plant response rating (0 to 100 scale): 90
[5]; 125 g ai/ha
  Plant response rating (0 to 100 scale): 100
[6]; 31 g ai/ha
  Plant response rating (0 to 100 scale): 30
[6]; 125 g ai/ha
  Plant response rating (0 to 100 scale): 50
[7]; Postemergence, 16 g ai/ha
  Plant response rating, Oat, Wild: 98
[7]; Postemergence, 31 g ai/ha
  Plant response rating, Oat, Wild: 100
[7]; Postemergence, 62 g ai/ha
  Plant response rating, Oat, Wild: 100
[7]; Postemergence, 125 g ai/ha
  Plant response rating, Oat, Wild: 100
[7]; Preemergence, 31 g ai/ha
  Plant response rating, Oat, Wild: 35
[7]; Preemergence, 61 g ai/ha
  Plant response rating, Oat, Wild: 30
[7]; Preemergence, 62 g ai/ha
  Plant response rating, Oat, Wild: 40
[7]; Preemergence, 125 g ai/ha
  Plant response rating, Oat, Wild: 60
[8]; Postemergence, 31 g ai/ha
  Plant response rating (0 to 100 scale): 100
[8]; Postemergence, 125 g ai/ha
  Plant response rating (0 to 100 scale): 100
[8]; Preemergence, 31 g ai/ha
  Plant response rating (0 to 100 scale): 100
[8]; Preemergence, 125 g ai/ha
  Plant response rating (0 to 100 scale): 100
[9]; Postemergence, 31 g ai/ha
  Plant response rating (0 to 100 scale): 100
[9]; Postemergence, 125 g ai/ha
  Plant response rating (0 to 100 scale): 100
[9]; Preemergence, 31 g ai/ha
  Plant response rating (0 to 100 scale): 100
[9]; Preemergence, 125 g ai/ha
  Plant response rating (0 to 100 scale): 100
[10]; Postemergence, 31 g ai/ha
  Plant response rating (0 to 100 scale): 100
[10]; Postemergence, 125 g ai/ha
  Plant response rating (0 to 100 scale): 100
[10]; Preemergence, 31 g ai/ha
  Plant response rating (0 to 100 scale): 100
[10]; Preemergence, 125 g ai/ha
  Plant response rating (0 to 100 scale): 100
[11]; Postemergence, 31 g ai/ha
  Plant response rating (0 to 100 scale): 80
[11]; Postemergence, 125 g ai/ha
  Plant response rating (0 to 100 scale): 100
[11]; Preemergence, 31 g ai/ha
  Plant response rating (0 to 100 scale): 0
[11]; Preemergence, 125 g ai/ha
  Plant response rating (0 to 100 scale): 80
[12]; Postemergence, 31 g ai/ha
  Plant response rating (0 to 100 scale): 100
[12]; Postemergence, 125 g ai/ha
  Plant response rating (0 to 100 scale): 100
[12]; Preemergence, 31 g ai/ha
  Plant response rating (0 to 100 scale): 100
[12]; Preemergence, 125 g ai/ha
  Plant response rating (0 to 100 scale): 100
